The values below come from patent US11692004B2, “Substituted pyrazole compound, preparation method therefor, pharmaceutical composition and medical use thereof” (JIANGSU VANGUARD PHARMACEUTICAL CO., LTD., priority 2018, dated 2023).

Series [1] concerns PC12 cells. In words: In-vitro neuroprotection-I (H2O2 injury, MTT). Type of series: cell-based. To be noted: Rattus norvegicus, PC-12, 48 h compound, then 200 μM H2O2 24 h, MTT survival rate. As to the method: All samples were made into 60 mM stock solution by DMSO, which were 200 times diluted to 300 μM by medium. And the final concentration was further diluted into different concentrations by media.
Control: Normal cell-plating and same cell medium as other group. 24 hours later, the medium was discarded. Incubate the cell in new media for 24 hours. No compound and hydrogen peroxide treatment. Other steps were the same as the sample test as mentioned below did.
Blank: no cell plating, cell medium, and other steps were the same as the sample test as mentioned below did.
After resuscitating, the PC12 cells were cultured in RPMI-1640 containing 10% horse serum and 5% Fetus Bovine Serum (FBS) under 5% CO2 at 37° C. for two weeks. The medium was changed every other day. The compounds were diluted into solutions of 12.5, 25, 50, 100, 200, 300 μM with culture medium (except that examples 33-45 with additional solutions of 400 μM and 500 μM). The PC 12 cells were seeded into a 96-well plate at a density of 8×10^3 cells/well and cultured in a 37° C., 5% CO2 incubator for 24 hours. Removed the medium, the cells were added with the compound solutions of different concentrations as test solutions for another 48 h incubation in a 37° C., 5% CO2 incubator. After the incubation, apart from the blank and control groups, the wells (including 0 μM drug group) were added to the medium-prepared 200 μM H2O2, and continued for another 24 h incubation in a 37° C., 5% CO2 incubator.
After the incubation, the wells were added with 20 μL 5 mg/mL MTT and incubated for 4 hours at 37° C. Carefully removed the medium and added 150 μL DMSO. The plates were placed on an enzyme-labeled instrument and vibrated for 5 min. The absorbance Atest solution were obtained at 490 nm with the Ablank of the well without cells and the Acontrol of the well with untreated cells. The survival rate of the cells in every well by the formula survival rate (%)=(Atest solution−Ablank)/(Acontrol−Ablank)*100%.

In series [2] the test system is MCAO model (middle cerebral artery ischemia-reperfusion). Description: In vivo drug efficacy test of MCAO model. To be noted: SD rats, MCAO 2 h then reperfusion, tail vein infusion 30 min.
A short description of series [3]: Solubility test in distilled water. It counts as physicochemical. To be noted: thermodynamic from solid, 25° C. As to the method: Test method: the dry compound was slowly dissolved into about 0.5 ml distilled water in a 5 ml EP tube until saturation (turbid after ultra-sonic vibration at 25° C.). The solution was filtered and moved to another clean 5 ml EP tube (pre-weighed) and the tube was weighed again to calculate the solution weight. The solution was freeze dried. The remaining solute was weighed to calculate the solvent weight, and then the compound solubility in water was determined.

Series [4] is described as follows: Stability studies (high humidity, illumination, high temperature, seven days). It counts as physicochemical. To be noted: 25° C. ± 2° C., 60% ± 5 RH, 4500 ± 500 LX. As to the method:
The stability of samples from some embodiments were examined under high humidity (25° C.±2° C., 90%±5RH), illumination (25° C.±2° C., 60%±5RH, 4500±500LX), high temperature (60° C.±2° C., 60%±5RH), which were stored in the stability incubator for seven days, for the changes of related substances and contents, as shown in Table 2.

Series [5] deals with B6SJL-Tg (SOD1*G93A) mice. In words: In vivo efficacy test of ALS model. Details: key to Rotarod Time / PaGE: “+” indicates a significant difference compared with the solvent group, p < 0.05. To be noted: 86 μmol/kg i.p. once a day for 4 weeks. How it is done: B6SJL-Tg (SOD1*G93A) mice were intraperitoneally administered single-doses once a day for 4 consecutive weeks. The weight of the mice was determined before and after the administration every week. The motor function of the mice was determined by rota-rod and PaGE tests with the time points before and after 4-week administration. The mice plasma was collected and detected for SOD levels through ELISA. The Index Evaluation described below was used to evaluate the efficacy of the compounds of the examples in ALS model and to what extent the compounds of the examples improve the survival period and motor activity.
The animals were delivered to the SPF animal room and raised for more than one week. Five days before the test, the mice were accustomed to a round of tests per day. The mice were randomly divided into groups according to their body weights, 8 mice for each group. Among them, the solvent group was given with the same volume of solvent (physiological saline) every day.
The mice were administered with a volume of 10 ml/kg.
i.p once a day for 4 weeks.
Index evaluation time started from the beginning of the experiment to the death of the animals.
1) ALS onset time: For 2 consecutive observation days, the mice appeared limb, tremor and/or limb weakness at tail suspension were determined as the ALS onset. The determination of limb weakness: the mice were placed on the rota-rod device with a diameter of 3.5 cm. The speed is set to 15 rpm to record the longest fall latency divided by 420 s. The mice of less 420 s were determined as limb weakness.
2) Rota-rod Test: The mice were placed on the rota-rod device with a diameter of 3.5 cm. The speed is set to 12 rpm to record the longest fall latency divided by 180 s. The latency of more than 180 s was recorded as 180 s, and actual time was recorded when less than 180 s.
3) Paw Grip Endurance (PaGE) Test: The mice were placed on the traditional wire grid. The grid was gently shaken to cause the mice to tighten its grip on the wires then inverted, and time recording commenced. The time was recorded until the mouse lost its grip in hind limbs divided by 90 s. The time more than 90 s was recorded as 90 s, while the time less than 90 s was recorded by its actual time. The test was completed in triplicate with the highest score used for analysis.
5) Plasma SOD concentration: The blood was collected and mixed with EP tube containing heparin before and after administration at the 4th week, and then centrifuged at 1000 g for 10 min. The plasma was collected and stored in aliquots at −70° C. ELISA kit was used to detect plasma SOD levels.

The structures appear in SMILES notation. pEC50: −log10 of the molar value. Some results are limits rather than exact numbers.

What is called pEC50 is the EC50 on a negative log10 scale, so that one unit is a factor of ten. In general, solubility refers to the dissolved amount per volume that the medium holds. `CC1=NN(c2ccccc2)C(=O)C1` [Edaravone, edaravone, reference compound] showed a pEC50 in series [1] of 3.77. Also, the “Cerebral infarction area (%)” value in series [2] (TTC staining, infarct area to whole brain area) is recorded as 20.1%. For the same molecule, the “Improvements of nerve function (%)” value in series [2] (score at 24 h versus model control) came out at 15.7%. For the same molecule, the solubility in series [3] is < 1000 µg/mL. Further, in series [4], the “Content Drop, Illumination” value is listed as 4%; the “Stability, Illumination: changes of related substances and contents” value is reported as “dropped significantly”. Also, in series [5], the “Onset time” value was 116.14 ± 7.82 days and the “Survival time” value amounted to 147.00 ± 8.94 days. Besides, in series [5] (ELISA), the “Plasma SOD concentration on day 28th(U/mL)” value is recorded as 153.88 ± 9.91* U/mL. In series [5] (versus solvent group), the PaGE entry is on record as “+” and the “Rotarod Time” value is reported as “+”.
